Assay results: US8916702B2 (priority 2012, dated 2014)

tested on: HCV pseudoparticles (genotype 1a HCV E1 and E2 envelope, H77C isolate); assay: microbe, parasite or virus in culture; format: cell-based; conditions: Hepatitis C virus, Huh-7, 48 h, HCV pseudoparticle infection of Huh7 cells, luciferase 2 days after infection; average of duplicates

Row | SMILES | EC50
1 | CC(C)(CNC(=O)C(=O)N1CCc2cc(F)ccc21)CNC(=O)c1ccc(Nc2nc(NC3(c4ccc(Cl)cc4)CC3)nc(OCC(F)(F)F)n2)cc1 [Compound 1585] | 0.03 nM
2 | COC(=O)[C@H](CNC(=O)C(=O)NC(C1CC1)C1CC1)NC(=O)c1ccc(Nc2nc(NC3(c4ccc(Cl)cc4)CC3)nc(OCC(F)(F)F)n2)cc1 [Compound 1055] | 2.41 nM
3 | O=C(NC[C@H](NC(=O)c1ccc(Nc2nc(NC3(c4ccc(Cl)cc4)CC3)nc(OCC(F)(F)F)n2)cc1)C(=O)O)C(=O)NC1CCC(O)CC1 (stereo partly drawn) [Compound 1078] | 11.9 nM
4 | CC(C)(Cc1ccc(F)cc1)NC(=O)C(=O)NCC[C@H](NC(=O)c1ccc(Nc2nc(NC3(c4ccc(Cl)cc4)CC3)nc(OCC(F)(F)F)n2)cc1)C(=O)O [Compound 1340] | 0.1 nM
5 | COc1ccc(CNC(=O)C(=O)NC[C@H](NC(=O)c2ccc(Nc3nc(NC4(c5ccc(Cl)cc5)CC4)nc(OCC(F)(F)F)n3)cc2)C(=O)O)c(OC)c1 [Compound 1172] | 9.26 nM

same assay, conditions: Hepatitis C virus, Huh-7, 48 h, HCV pseudoparticles (genotype 1a, H77C) in Huh7 cells; average of duplicate; luciferase 2 days after infection

Row | SMILES | EC50
6 | COC(=O)[C@H](CNC(=O)C(=O)Nc1ccc(-n2cnnn2)cc1)NC(=O)c1ccc(Nc2nc(NC3(c4ccc(Cl)cc4)CC3)nc(OCC(F)(F)F)n2)cc1 [Compound 3191] | 0.82 nM
7 | CC1CC(=O)c2ccc(NC(=O)C(=O)NCC(C)(C)CNC(=O)c3ccc(Nc4nc(NC5(c6ccc(Cl)cc6)CC5)nc(OCC(F)(F)F)n4)cc3)cc2O1 (stereo not drawn) [Compound 3336] | 0.09 nM

same assay, conditions: Hepatitis C virus, Huh-7, 48 h, read-out: Activity (EC50 class), HCV pseudoparticle infection of Huh7 cells, luciferase 2 days after infection; EC50 expressed as class A/B

Row | SMILES | EC50
8 | CC(C)(CNC(=O)C(=O)N1CCc2cc(F)ccc21)CNC(=O)c1ccc(Nc2nc(NC3(c4ccc(Cl)cc4)CC3)nc(OCC(F)(F)F)n2)cc1 [Compound 1585] | 0.01 to 10 nM
9 | COC(=O)[C@H](CCNC(=O)C(=O)N[C@H]1C[C@H]1c1ccccc1)NC(=O)c1ccc(Nc2nc(NC3(c4ccc(Cl)cc4)CC3)nc(OCC(F)(F)F)n2)cc1 [Compound 1317] | 0.01 to 10 nM
10 | O=C(NCCc1ccccn1)C(=O)NC[C@H](NC(=O)c1ccc(Nc2nc(NC3(c4ccc(Cl)cc4)CC3)nc(OCC(F)(F)F)n2)cc1)C(=O)O [Compound 1394] | 0.01 to 10 nM
11 | O=C(NCC[C@@H](NC(=O)c1ccc(Nc2nc(NC3(c4ccc(Cl)cc4)CC3)nc(OCC(F)(F)F)n2)cc1)C(=O)O)C(=O)Nc1cccc(F)c1F [Compound 1530] | 0.01 to 10 nM
12 | C[C@]12C3C1[C@H]3C[C@@H]2NC(=O)C(=O)NCC[C@H](NC(=O)c1ccc(Nc2nc(NC3(c4ccc(Cl)cc4)CC3)nc(OCC(F)(F)F)n2)cc1)C(=O)O (stereo partly drawn) [Compound 1117] | 0.01 to 10 nM
13 | O=C(Nc1ccc(F)cc1)C(=O)NC1CCCC1CNC(=O)c1ccc(Nc2nc(NC3(c4ccc(Cl)cc4)CC3)nc(OCC(F)(F)F)n2)cc1 (stereo not drawn) [Compound 1465, N^1-(2-((4-((4-((1-(4-chlorophenyl)cyclopropyl)amino)-6-(2,2,2-trifluoroethoxy)-1,3,5-triazin-2-yl)amino)benzamido)methyl)cyclopentyl)-N^2-(4-fluorophenyl)oxalamide] | 0.01 to 10 nM
14 | COC(=O)[C@H](CNC(=O)C(=O)NC(C1CC1)C1CC1)NC(=O)c1ccc(Nc2nc(NC3(c4ccc(Cl)cc4)CC3)nc(OCC(F)(F)F)n2)cc1 [Compound 1055] | 0.01 to 10 nM
15 | O=C(NCC1CCCO1)C(=O)NC[C@@H](NC(=O)c1ccc(Nc2nc(NC3(c4ccc(Cl)cc4)CC3)nc(OCC(F)(F)F)n2)cc1)C(=O)O (stereo partly drawn) [Compound 1042] | 0.01 to 10 nM
16 | COC(=O)[C@H](CCNC(=O)C(=O)N[C@H]1C[C@H]2C[C@@H]([C@H]1C)C2(C)C)NC(=O)c1ccc(Nc2nc(NC3(c4ccc(Cl)cc4)CC3)nc(OCC(F)(F)F)n2)cc1 [Compound 1074] | 0.01 to 10 nM
17 | CN(C)C(=O)C(=O)NC[C@H](NC(=O)c1ccc(Nc2nc(NC3(c4ccc(Cl)cc4)CC3)nc(OCC(F)(F)F)n2)cc1)C(=O)OCCOCCO [Compound 1023, (S)-2-(2-hydroxyethoxy)ethyl 2-(4-(4-(1-(4-chlorophenyl)cyclopropylamino)-6-(2,2,2-trifluoroethoxy)-1,3,5-triazin-2-ylamino)benzamido)-3-(2-(dimethylamino)-2-oxoacetamido)propanoate] | 0.01 to 10 nM
18 | COC(=O)[C@H](CCNC(=O)C(=O)NCC(C)(C)C)NC(=O)c1ccc(Nc2nc(NC3(c4ccc(Cl)cc4)CC3)nc(OCC(F)(F)F)n2)cc1 [Compound 1195] | 0.01 to 10 nM
19 | O=C(NCc1ccc(F)c(F)c1)C(=O)NC[C@H](NC(=O)c1ccc(Nc2nc(NC3(c4ccc(Cl)cc4)CC3)nc(OCC(F)(F)F)n2)cc1)C(=O)O [Compound 1171] | 0.01 to 10 nM
20 | O=C(NC[C@H](NC(=O)c1ccc(Nc2nc(NC3(c4ccc(Cl)cc4)CC3)nc(OCC(F)(F)F)n2)cc1)C(=O)O)C(=O)NC1CCC(O)CC1 (stereo partly drawn) [Compound 1078] | 10 to 1000 nM
21 | COC(=O)[C@H](CNC(=O)C(=O)NCCn1cccn1)NC(=O)c1ccc(Nc2nc(NC3(c4ccc(Cl)cc4)CC3)nc(OCC(F)(F)F)n2)cc1 [Compound 1300] | 0.01 to 10 nM
22 | COC(=O)[C@H](CCNC(=O)C(=O)NCC1CC1(Cl)Cl)NC(=O)c1ccc(Nc2nc(NC3(c4ccc(Cl)cc4)CC3)nc(OCC(F)(F)F)n2)cc1 (stereo partly drawn) [Compound 1372] | 0.01 to 10 nM
23 | COC(=O)[C@H](CNC(=O)C(=O)NCCc1ccccc1F)NC(=O)c1ccc(Nc2nc(NC3(c4ccc(Cl)cc4)CC3)nc(OCC(F)(F)F)n2)cc1 [Compound 1290] | 0.01 to 10 nM
24 | CC(C)(Cc1ccc(F)cc1)NC(=O)C(=O)NCC[C@H](NC(=O)c1ccc(Nc2nc(NC3(c4ccc(Cl)cc4)CC3)nc(OCC(F)(F)F)n2)cc1)C(=O)O [Compound 1340] | 0.01 to 10 nM
25 | COC(=O)C(NC(=O)c1ccc(Nc2nc(NC3(c4ccc(Cl)cc4)CC3)nc(OCC(F)(F)F)n2)cc1)C1CCCN(C(=O)C(N)=O)C1 (stereo not drawn) [Compound 1017, methyl 2-(1-(2-amino-2-oxoacetyl)piperidin-3-yl)-2-(4-(4-(1-(4-chlorophenyl)cyclopropylamino)-6-(2,2,2-trifluoroethoxy)-1,3,5-triazin-2-ylamino)benzamido)acetate] | 0.01 to 10 nM
26 | COC(=O)[C@H](CCNC(=O)C(=O)NCC1(C(=O)OC)CC1)NC(=O)c1ccc(Nc2nc(NC3(c4ccc(Cl)cc4)CC3)nc(OCC(F)(F)F)n2)cc1 [Compound 1375] | 0.01 to 10 nM
27 | COc1ccc(CNC(=O)C(=O)NC[C@H](NC(=O)c2ccc(Nc3nc(NC4(c5ccc(Cl)cc5)CC4)nc(OCC(F)(F)F)n3)cc2)C(=O)O)c(OC)c1 [Compound 1172] | 0.01 to 10 nM
28 | COc1ccccc1NC(=O)C(=O)NCC[C@H](NC(=O)c1ccc(Nc2nc(NC3(c4ccc(Cl)cc4)CC3)nc(OCC(F)(F)F)n2)cc1)C(=O)O [Compound 1276] | 0.01 to 10 nM
29 | O=C(NC[C@H](NC(=O)c1ccc(Nc2nc(NC3(c4ccc(Cl)cc4)CC3)nc(OCC(F)(F)F)n2)cc1)C(=O)O)C(=O)Nc1cn[nH]c1 [Compound 1354] | 0.01 to 10 nM
30 | COCC(NC(=O)C(=O)NCC[C@H](NC(=O)c1ccc(Nc2nc(NC3(c4ccc(Cl)cc4)CC3)nc(OCC(F)(F)F)n2)cc1)C(=O)O)C1CC1 (stereo partly drawn) [Compound 1441] | 0.01 to 10 nM

same assay, conditions: Hepatitis C virus, Huh-7, 48 h, read-out: Activity (EC50 class), HCV pseudoparticles, Huh7 cells, luciferase 2 days after infection; average of duplicates

Row | SMILES | EC50
31 | O=C(NC[C@H](NC(=O)c1ccc(Nc2nc(NC3(c4ccc(Cl)cc4)CC3)nc(OCC(F)(F)F)n2)cc1)C(=O)Cl)C(=O)Nc1cccc(Cl)c1 [Compound 3741] | 0.01 to 10 nM
32 | COC(=O)[C@H](CNC(=O)C(=O)Nc1ccc(NC(C)=O)nc1)NC(=O)c1ccc(Nc2nc(NC3(c4ccc(Cl)cc4)CC3)nc(OCC(F)(F)F)n2)cc1 [Compound 3706] | 0.01 to 10 nM
33 | Cc1ccc(NC(=O)C(=O)NCC(C)(C)CNC(=O)c2ccc(Nc3nc(NC4(c5ccc(Cl)cc5)CC4)nc(OCc4ccc(C(C)(C)C)cc4)n3)cc2)cc1 [Compound 3841] | 0.01 to 10 nM
34 | O=C(NCC[C@H](NC(=O)c1ccc(Nc2nc(NC3(c4ccc(Cl)cc4)CC3)nc(OCC(F)(F)F)n2)cc1)C(=O)O)C(=O)Nc1ccc(Cl)nc1 [Compound 3611] | 0.01 to 10 nM
35 | COC(=O)[C@H](CNC(=O)C(=O)Nc1cccc(-c2nncn2C)c1)NC(=O)c1ccc(Nc2nc(NC3(c4ccc(Cl)cc4)CC3)nc(OCC(F)(F)F)n2)cc1 [Compound 3719] | 0.01 to 10 nM

same assay, conditions: Hepatitis C virus, Huh-7, read-out: Activity (EC50 class), HCV pseudoparticles (genotype 1a, H77C) in Huh7 cells; EC50 expressed as class A/B

Row | SMILES | EC50
36 | COC(=O)[C@H](CNC(=O)C(=O)Nc1ccc(-n2cnnn2)cc1)NC(=O)c1ccc(Nc2nc(NC3(c4ccc(Cl)cc4)CC3)nc(OCC(F)(F)F)n2)cc1 [Compound 3191] | 0.01 to 10 nM
37 | O=C(NCCCCNC(=O)c1ccc(Nc2nc(NC3(c4ccc(Cl)cc4)CC3)nc(OCC(F)(F)F)n2)cc1)C(=O)Nc1nccs1 [Compound 3399] | 0.01 to 10 nM
38 | COC(=O)[C@H](CCNC(=O)C(=O)Nc1ccc(OCc2ccccc2)cc1)NC(=O)c1ccc(Nc2nc(NC3(c4ccc(Cl)cc4)CC3)nc(OCC(F)(F)F)n2)cc1 [Compound 3118] | 0.01 to 10 nM
39 | CC(C)(CNC(=O)C(=O)Nc1ccccc1-c1nnco1)CNC(=O)c1ccc(Nc2nc(NC3(c4ccc(Cl)cc4)CC3)nc(OCC(F)(F)F)n2)cc1 [Compound 3246] | 0.01 to 10 nM
40 | CC(CNC(=O)C(=O)N1CCc2ccccc2C1)CNC(=O)c1ccc(Nc2nc(NC3(c4ccc(Cl)cc4)CC3)nc(OCC(F)(F)F)n2)cc1 (stereo not drawn) [Compound 3471] | 0.01 to 10 nM
41 | COC(=O)[C@H](CNC(=O)C(=O)Nc1ccc(OC(F)(F)F)cc1)NC(=O)c1ccc(Nc2nc(NC3(c4ccc(Cl)cc4)CC3)nc(OCC(F)(F)F)n2)cc1 [Compound 3214] | 0.01 to 10 nM
42 | COC(=O)[C@H](CCNC(=O)C(=O)Nc1ccc(N2Cc3ccccc3C2)cc1)NC(=O)c1ccc(Nc2nc(NC3(c4ccc(Cl)cc4)CC3)nc(OCC(F)(F)F)n2)cc1 [Compound 3306] | 0.01 to 10 nM
43 | Cn1cnc2ccc(NC(=O)C(=O)NCC(C)(C)CNC(=O)c3ccc(Nc4nc(NC5(c6ccc(Cl)cc6)CC5)nc(OCC(F)(F)F)n4)cc3)cc21 [Compound 3341] | 0.01 to 10 nM
44 | Cc1nccn1Cc1ccc(NC(=O)C(=O)NCC[C@H](NC(=O)c2ccc(Nc3nc(NC4(c5ccc(Cl)cc5)CC4)nc(OCC(F)(F)F)n3)cc2)C(=O)O)cc1 [Compound 3542] | 10 to 1000 nM
45 | COC(=O)[C@H](CNC(=O)C(=O)Nc1ccc(C)cc1)NC(=O)c1ccc(Nc2nc(NC3(c4ccc(Cl)cc4)CC3)nc(OCC(F)(F)F)n2)cc1 [Compound 3085] | 0.01 to 10 nM
46 | O=C(NC[C@H](NC(=O)c1ccc(Nc2nc(NC3(c4ccccc4)CC3)nc(OCC(F)(F)F)n2)cc1)C(=O)O)C(=O)Nc1ccc(Oc2ccc(F)cc2)cc1 [Compound 3269] | 0.01 to 10 nM
47 | O=C(NCC[C@H](NC(=O)c1ccc(Nc2nc(NC3(c4ccc(Cl)cc4)CC3)nc(OCC(F)(F)F)n2)cc1)C(=O)O)C(=O)Nc1ccc(N2CCCC2=O)cc1 [Compound 3227] | 0.01 to 10 nM
48 | CC1CC(=O)c2ccc(NC(=O)C(=O)NCC(C)(C)CNC(=O)c3ccc(Nc4nc(NC5(c6ccc(Cl)cc6)CC5)nc(OCC(F)(F)F)n4)cc3)cc2O1 (stereo not drawn) [Compound 3336] | 0.01 to 10 nM
49 | COC(=O)[C@H](CNC(=O)C(=O)Nc1ccc(-c2csc(N3CCOCC3)n2)cc1)NC(=O)c1ccc(Nc2nc(NC3(c4ccc(Cl)cc4)CC3)nc(OCC(F)(F)F)n2)cc1 [Compound 3201] | 0.01 to 10 nM
50 | O=C(NC/C(=N/C(=O)c1ccc(Nc2nc(NC3(c4ccc(Cl)cc4)CC3)nc(OCC(F)(F)F)n2)cc1)C(=O)O)C(=O)Nc1ccc(C(=O)N2CCOCC2)cc1 [Compound 3166] | 0.01 to 10 nM
51 | CC(C)(CNC(=O)C(=O)Nc1ccc(-n2cncn2)cc1)CNC(=O)c1ccc(Nc2nc(NC3(c4ccc(Cl)cc4)CC3)nc(OCC(F)(F)F)n2)cc1 [Compound 3053] | 0.01 to 10 nM
